Measured values taken from patent US8466132B2, “Substituted tetracycline compounds” (Paratek Pharmaceuticals, Inc., priority 2004, dated 2013).

Legend:
Assay type in all cases: cell-based
in vitro = test: in vitro
Experimental: COS-1 and CHO-K1 cell suspensions were prepared, seeded into 96-well tissue culture treated black-walled microtiter plates (density determined by cell line), and incubated overnight at 37° C., in 5% CO2 and approximately 95% humidity. The following day, serial dilutions of drug were prepared under sterile conditions and transferred to cell plates. Cell/Drug plates were incubated under the above conditions for 24 hours. Following the incubation period, media/drug was aspirated and 50 μL of Resazurin (0.042 mg/ml in PBS w/Ca and Mg) was added. The plates were then incubated under the above conditions for 2 hours and then in the dark at room temperature for an additional 30 minutes. Fluorescence measurements were taken (excitation 535 nm, emission 590 nm). The IC50 (concentration of drug causing 50% growth inhibition) was then calculated.

S. aureus RN450 = test: In vitro minimum inhibitory concentration (MIC) assay, S. aureus; design: key: Compounds which showed superior inhibition of S. aureus, S. pseumoniae and E. coli are indicated by “***,”; compounds which showed very good or good inhibition of S. aureus, S. pseumoniae and E. coli are indicated by “**” or “*” respectively; compounds which showed very good or good inhibition of S. aureus, S. pseumoniae and E. coli are indicated by “**” or “*” respectively; conditions: broth microdilution in CAMHB, 35° C., approximately 18 hour
Experimental: (§1) The following assay is used to determine the efficacy of the tetracycline compounds against common bacteria. 2 mg of each compound is dissolved in 100 μl of DMSO. The solution is then added to cation-adjusted Mueller Hinton broth (CAMHB), which results in a final compound concentration of 200 μg per ml. The tetracycline compound solutions are diluted to 50 μL volumes, with a test compound concentration of 0.098 μg/ml. Optical density (OD) determinations are made from fresh log-phase broth cultures of the test strains. Dilutions are made to achieve a final cell density of 1×10^6 CFU/ml. At OD=1, cell densities for different genera should be approximately:
(§2) 50 μl of the cell suspensions are added to each well of microtiter plates. The final cell density should be approximately 5×10^5 CFU/ml. These plates are incubated at 35° C. in an ambient air incubator for approximately 18 hour. The plates are read with a microplate reader and are visually inspected when necessary. The MIC is defined as the lowest concentration of the tetracycline compound that inhibits growth.
(§3) Table 3 gives the MIC (μg/mL) of selected substituted tetracycline compounds against S. aureus, S. pseuimoniae, and E. coli.

S. pneumoniae 157E = test: In vitro minimum inhibitory concentration (MIC) assay, S. pneumoniae; design: key: Compounds which showed superior inhibition of S. aureus, S. pseumoniae and E. coli are indicated by “***,”; compounds which showed very good or good inhibition of S. aureus, S. pseumoniae and E. coli are indicated by “**” or “*” respectively; compounds which showed very good or good inhibition of S. aureus, S. pseumoniae and E. coli are indicated by “**” or “*” respectively; conditions: broth microdilution in CAMHB, 35° C., approximately 18 hour
Experimental: as §1, §2, §3

E. coli MG 1655 = test: In vitro minimum inhibitory concentration (MIC) assay, E. coli; design: key: Compounds which showed superior inhibition of S. aureus, S. pseumoniae and E. coli are indicated by “***,”; compounds which showed very good or good inhibition of S. aureus, S. pseumoniae and E. coli are indicated by “**” or “*” respectively; compounds which showed very good or good inhibition of S. aureus, S. pseumoniae and E. coli are indicated by “**” or “*” respectively; conditions: broth microdilution in CAMHB, 35° C., approximately 18 hour
Experimental: as §1, §2, §3

Compound | IC50 at 24 h (in vitro) | Median MIC for S. aureus RN450 (S. aureus RN450) | Median MIC for S. pneumoniae 157E (S. pneumoniae 157E) | Median MIC for E. coli MG 1655 (E. coli MG 1655)
CN(C)c1ccc(O)c2c1C[C@H]1C[C@H]3[C@H](N(C)C)C(O)=C(C(N)=O)C(=O)[C@@]3(O)C(O)=C1C2=O [minocycline, Minocycline] | > 25 µg/mL | – | – | –
C[C@H]1c2cccc(O)c2C(=O)C2=C(O)[C@]3(O)C(=O)C(C(N)=O)=C(O)[C@@H](N(C)C)[C@@H]3[C@@H](O)[C@@H]21 [doxycycline, Doxycycline] | > 25 µg/mL | – | – | –
CN(C)c1ccc(-c2cc(N(C)C)c3c(c2O)C(=O)C2=C(O)[C@]4(O)C(=O)C(C(N)=O)=C(O)[C@@H](N(C)C)[C@@H]4C[C@@H]2C3)cc1 | – | *** | *** | *

Results, then the compound that gave them:

IC50 at 24 h (in vitro) | Median MIC for S. aureus RN450 (S. aureus RN450) | Median MIC for S. pneumoniae 157E (S. pneumoniae 157E) | Median MIC for E. coli MG 1655 (E. coli MG 1655) | Compound
– | * | * | * | CN(C)c1cc(C(N)=O)c(O)c2c1C[C@H]1C[C@H]3[C@H](N(C)C)C(O)=C(C(N)=O)C(=O)[C@@]3(O)C(O)=C1C2=O
– | * | *** | * | CN(C)c1cc(C(=O)NCCN)c(O)c2c1C[C@H]1C[C@H]3[C@H](N(C)C)C(O)=C(C(N)=O)C(=O)[C@@]3(O)C(O)=C1C2=O
– | * | * | * | CCCCNC(=O)c1cc(N(C)C)c2c(c1O)C(=O)C1=C(O)[C@]3(O)C(=O)C(C(N)=O)=C(O)[C@@H](N(C)C)[C@@H]3C[C@@H]1C2
